Measured values as given in article PMC8231572, “New Heparanase-Inhibiting Triazolo-Thiadiazoles Attenuate Primary Tumor Growth and Metastasis” (Cancers, 2021).
Entries after “also recorded” stand apart in the source; their conditions may differ.

Key:
U87 human glioma cells = assay: Cell invasion through Matrigel-coated transwell filters (Boyden chambers); assay type: cell-based; settings: 10 µg/mL, 6 h, 37 °C, Matrigel-coated 8 μm transwell filters
Description: Invasion assay was performed using Boyden chambers as reported previously. Briefly, U87 cells (5 × 10^5) were seeded into the upper chamber of the invasion chamber in a medium devoid of serum, and the lower chamber contained media supplemented with serum. The cell invasion on treatment with title compounds (4-MMI, 4-CMI; […]) was analyzed by staining with 0.5% crystal violet (Sigma-Aldrich) and photographed.
(§1) Figure 3 Inhibition of ECM degradation and cell invasion. (A) ECM degradation. Active heparanase (200 ng) was incubated for 5 h without (red) or with 5 and 25 µg/mL of 4-CMI, 4-MDI, or 4-MMI on dishes coated with sulfate-labeled ECM. Labeled material released from the ECM was subjected to gel filtration (Sepharose 6B). Heparan sulfate degradation fragments are typically eluted in fractions 18–30. (B) Cell invasion. U87 human glioma cells (2 × 10^5) were plated onto Matrigel-coated 8 μm transwell filters and incubated (6 h, 37 °C) in the absence (Con) or presence of 4-MMI or 4-CMI (10 µg/mL). (C) Dose–response showing the effect of compound 4-MMI (2.5, 10, and 40 µg/mL) on U87 cell invasion. Invading cells adhering to the lower side of the membrane were visualized (top panels) and quantified (bottom panel) in 7 random fields as described in ‘Materials and Methods’.

heparanase [1] = biological target: T1, heparanase (Homo sapiens, UniProt Q9Y251); assay: ECM degradation heparanase assay (sulfate-labeled ECM, Sepharose 6B gel filtration); assay type: biochemical; settings: heparanase 200 ng, 5 h; for inhibition of heparanase activity (ECM degradation): 5 µg/mL compound; for inhibition at 25 µg/mL: 25 µg/mL compound
T1 sequence (Q9Y251 158-543 limits assumed): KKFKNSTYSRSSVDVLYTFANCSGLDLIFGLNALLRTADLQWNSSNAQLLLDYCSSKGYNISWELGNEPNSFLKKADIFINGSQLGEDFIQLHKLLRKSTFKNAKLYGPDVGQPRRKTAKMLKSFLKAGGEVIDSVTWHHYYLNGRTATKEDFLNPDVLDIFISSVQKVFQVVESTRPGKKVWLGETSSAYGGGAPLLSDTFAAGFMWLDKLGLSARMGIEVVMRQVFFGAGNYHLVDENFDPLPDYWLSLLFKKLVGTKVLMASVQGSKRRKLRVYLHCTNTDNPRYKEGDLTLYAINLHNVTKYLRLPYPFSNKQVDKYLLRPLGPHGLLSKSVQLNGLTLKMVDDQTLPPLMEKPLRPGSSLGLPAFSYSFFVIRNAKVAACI
T1 sequence (Q9Y251 36-109 limits assumed): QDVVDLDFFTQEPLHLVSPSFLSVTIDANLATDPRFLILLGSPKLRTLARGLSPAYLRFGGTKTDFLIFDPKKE
Description: ECM degradation heparanase assay was carried out as reported earlier. Briefly, ECM labeled with sulfate [^35S] [25] and coating the surface of 35-mm cultures plates was treated with heparanase (200 ng/mL) with or without compounds under investigation. The medium was collected to examine the cleavage of HS proteoglycans and subjected to molecular sieving on Sepharose 6B columns. The radioactivity was measured in the eluted fractions (0.2 mL). Blue dextran and phenol red were used to mark the excluded volume (Vo) and included volume (Vt), respectively. The cleaved HS chains were eluted at 0.5 < Kav < 0.8 (fractions 16–32), and the nearly intact proteoglycan was eluted with the void volume.
To validate the results and better resemble the in vivo situation, we applied metabolically sulfate [Na2^35SO4] labeled extracellular matrix (ECM) deposited by cultured endothelial cells. This naturally produced substrate closely resembles the subendothelial basement membrane in its composition, biological function, and barrier properties. […] This semi-quantitative assay measures release of radioactive heparan sulfate (HS) degradation fragments from an insoluble extracellular matrix (ECM) that is firmly bound to a culture dish.
as §1

heparanase [2] = biological target: T1, heparanase; assay: Colorimetric heparanase assay (fondaparinux/Arixtra cleavage, WST-1); assay type: biochemical; settings: fondaparinux substrate, heparanase 140 pM, pH 5.0, 37 °C, 18 h; for IC50: read-out: IC50, inhibition of heparanase enzymatic activity (converted)
Description: The assay was carried out in a 96-well plate in which the formation of the disaccharide product upon cleavage of fondaparinux (Arixtra, GlaxoSmithKline, Brentford, UK) was estimated using WST-1 tetrazolium salt as described earlier. In brief, the reaction system (100 μL) comprised sodium acetate buffer (pH 5.0, 40 mM) and fondaparinux ([…]) with or without different doses of chemicals under investigation. The assay was initiated by the addition of recombinant heparanase to make the final concentration of 140 pM. The reaction vessels were placed at 37 °C for 18 h, followed by the addition of stop solution (100 μL). WST-1 prepared in 0.1 M NaOH served as a stop solution. Thereafter, the plates were incubated at 60 °C for 60 min, and absorbance was measured at 584 nm. N-(4-([4-(1H-Benzoimidazol-2-yl)-arylamino]-methyl)-phenyl)-benzamide (compound #98) was used as a reference compound. The title compounds were examined for their inhibitory efficacy towards heparanase at 10 and 50 μg/mL. Compounds that yielded inhibition at these concentrations were further tested at lower concentrations to determine their IC50.
The newly synthesized compounds presented in Table 1 were examined for their ability to inhibit the enzymatic activity of recombinant heparanase. For the initial screening of compounds, we applied a colorimetric assay based on the cleavage of the synthetic heparin pentasaccharide fondaparinux (Arixtra). The assay measures the appearance of a disaccharide product of heparanase-catalyzed fondaparinux cleavage, using the tetrazolium salt WST-1 [23]. All compounds were first tested for inhibition of heparanase at 10 and 50 μg/mL (not shown). Compounds that yielded inhibition at these high concentrations were further examined at lower concentrations to determine their IC50 (Figure 2).

[3] = system: MPC-11 mouse myeloma cells; assay: MPC-11 syngeneic myeloma tumor growth; assay type: in vivo
Description: The mouse myeloma (MPC-11) cells were gently washed with PBS and the cell number was adjusted to 5 × 10^6 cells/mL. Thereafter, six-week-old female BALB/c mice (n = 6) were subcutaneously injected with washed MPC-11 cells (5 × 10^5/0.1 mL). The experimental animals were treated with either DMSO alone (0.1 mL/mouse) or 4-MMI (daily 200 μg/mouse, i.p.) starting from day 2 after the implantation of tumor cells, for 12 days. The tumor size was measured using calipers on day 8 and day 12. The tumor volume (V) was determined using the equation V = L × W^2 × 0.52, where L is the length and W is the width of the tumor. Lastly, the mice were euthanized and xenograft tumors were removed, weighed, and fixed using formalin for further studies.
Figure 5 MPC-11 tumor growth. Cells (MPC-11 mouse myeloma) from exponential cultures were washed with PBS and brought to a concentration of 5 × 10^6 cells/mL. Cell suspension (5 × 10^5/0.1 mL) was inoculated subcutaneously at the right flank of 6-week-old female BALB/c mice (n = 6). Mice were treated with either DMSO (0.1 mL/mouse) or test compound (daily 200 µg/mouse, i.p.), starting on day 2 after the injection of tumor cells, for 12 days. Tumor size was determined on days 8 and 12 by externally measuring the tumors in two dimensions using a caliper (A, p < 0.001). […]

VEGF = assay: Immunostaining of MPC-11 tumor sections with anti-VEGF antibodies; assay type: in vivo, BALB/c mice; settings: tumors of mice treated daily with 200 μg/mouse i.p.
Description: Next, we examined the capacity of compound 4-MMI to inhibit myeloma primary tumor growth. For this purpose, we applied the MPC-11 syngeneic myeloma model. Briefly, BALB/c mice were implanted subcutaneously with MPC-11 mouse myeloma cells (0.5 × 10^6/mouse) and treated with either DMSO (0.1 mL/mouse) or 4-MMI (daily 200 μg/mouse, i.p.), starting on day two after tumor cell inoculation. Xenograft Tumor size was measured on days 8 and 12 (Figure 5A), resected, and weighed (Figure 5B) (see also Figure S2).
Figure S2. MPC-11 tumor growth. MPC-11 cells were inoculated subcutaneously at the right flank of 6-weeks old female Balb/C mice (n=6). Mice were treated with either DMSO (0.1 ml/mouse) or 4-MMI (daily 200 μg/mouse, i.p.) starting on day 2 after the injection of tumor cells, for 12 days. Tumor size was determined on days 8 and 12 (left panel). At the end of the experiment, mice were sacrificed and the tumors were resected and weighed (right panel). For more detail see figure 5.
Figure S3. Immunostaining. Tumors produced by untreated (control) a nd 4-MMI treated Balb/c mice were removed (day 13), fixed and embedded in paraffin. Five micron sections were subjected to immunostaining applying anti-VEGF antibodies. Shown are representative images (original magnification x100). […]

[4] = system: 4T1 mouse breast carcinoma cells; assay: 4T1 breast carcinoma experimental metastasis, IVIS bioluminescence imaging; assay type: in vivo, BALB/c mice; settings: IVIS day 13
Description: 4TI mouse breast cancer cells tagged with luciferase (1.5 × 10^5/0.1 mL/BALB/c mouse) were inoculated intravenously. Test compounds (i.p., 500 μg/mouse) or DMSO (0.1 mL/mouse) were administered 20 min before cell injection. The mice were analyzed using IVIS bioluminescent on day 7 and day 13 post-inoculation. These cells metastasize primarily to the lungs.
The bioluminescence imaging of tumors generated from luciferase-expressing cancer cells was carried out using a highly sensitive, cooled charge-coupled device camera assembled in a specimen box (IVIS; Xenogen Corp, Hopkinton, MA, USA). The imaging has advantages such as real-time capture, non-invasive, and quantitative values. For this, the tumor-bearing mice were intraperitoneally administered with a luciferase substrate D-luciferin at a dose of 150 mg/kg body weight. The experimental animal was anesthetized and kept in a camera box followed by continuous exposure to isoflurane (EZAnesthesia, Palmer, PA, USA). The bioluminescence from the tumor mass was detected by the IVIS system, and, subsequently, the tumor burden was quantified using Living Image software (Xenogen).
Figure 4 Inhibition of 4T1 breast carcinoma experimental metastasis. […] Quantification of the luciferase intensities is shown graphically in the lower panel, as described in ‘Section 2. […]

tumor cell = system: tumor cell; parameters: method as in PMID 28359266; settings: cited from earlier work

Row | inhibition of heparanase activity (ECM degradation) (heparanase [1]) | inhibition at 25 µg/mL (heparanase [1]) [%] | IC50 (heparanase [2]) [µM] | Compound | invasion capacity of U87 cells (U87 human glioma cells) | further results
1 | little or no inhibition | 50 to 70 | 6.6 | Oc1ccc(I)cc1-c1nn2c(-c3ccc(Cl)cc3)nnc2s1 [4-CMI, 2-(3-(4-chlorophenyl)-[1,2,4]triazolo[3,4-b][1,3,4]thiadiazol-6-yl)-4-iodophenol] | significantly inhibited | 
2 | little or no inhibition | 50 to 70 | 22.3 | Cc1ccc(-c2nnc3sc(-c4cc(I)cc(I)c4O)nn23)cc1 [4-MDI, 2,4-diiodo-6-(3-(p-tolyl)-[1,2,4]triazolo[3,4-b][1,3,4]thiadiazol-6-yl)phenol] |  | 
3 |  |  | 54.9 | Oc1c(I)cc(I)cc1-c1nn2c(-c3ccccc3)nnc2s1 [DTP, 2,4-Diiodo-6-(3-phenyl-[1,2,4]triazolo[3,4-b][1,3,4]thiadiazol-6yl)phenol, reference compound] |  | IC50 values, inhibition of tumor cell proliferation, migration, and invasion in vitro (tumor cell): micromolar range
4 |  |  |  | N-(4-([4-(1H-Benzoimidazol-2-yl)-arylamino]-methyl)-phenyl)-benzamide [Compound #98, reference compound] |  | IC50, inhibition of heparanase enzymatic activity (heparanase [2]): 0.7 µg/mL
5 |  |  |  | Roneparstat [reference compound] |  | inhibition of 4T1 experimental metastasis (luciferase intensity) ([4]; positive control 150 µg/mouse i.p. 20 min before i.v. cell inoculation): comparable

Row | Compound | inhibition of heparanase activity (ECM degradation) (heparanase [1]) | inhibition at 25 µg/mL (heparanase [1]) [%] | IC50 (heparanase [2]) [µM] | invasion capacity of U87 cells (U87 human glioma cells) | further results
6 | Cc1ccc(-c2nnc3sc(-c4cc(I)ccc4O)nn23)cc1 [4-MMI, 4-iodo-2-(3-(p-tolyl)-[1,2,4]triazolo[3,4-b][1,3,4]thiadiazol-6-yl)phenol] | little or no inhibition | 50 to 70 | 7.14 | significantly inhibited | tumor growth and tumor burden (tumor size days 8 and 12, tumor weight) ([3]; daily 200 μg/mouse i.p. from day 2 for 12 days, s.c. MPC-11 tumors): effectively and markedly decreased the rate of tumor growth and the tumor burden; also recorded: profound inhibition of tumor growth and burden; signs of distress and toxicity ([3]; daily administration of 200 ug/mouse/day): no signs of distress and toxicity; VEGF levels in tumor sections (VEGF): marked decrease in the levels of VEGF; also recorded: profound reduction in VEGF levels; inhibition of 4T1 experimental metastasis (extravasation and lung colonization, luciferase intensity) ([4]; 500 μg/mouse i.p. 20 min before i.v. cell inoculation): inhibited the extravasation of 4T1 cells and their subsequent colonization in the mouse lungs; also recorded: nearly fourfold inhibition
